Source: PubChem BioAssay (NCI)
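Protocol summary: plate cells (96-well), add compound at 5 concentrations, incubate 48 h, interpolate endpoints linearly. At the GI50, growth is halved. TGI is the concentration that stops growth completely.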

Experiments:
Assay in all cases: DTP human tumour cell line panel, 48 h
UACC-257 melanoma = system: UACC-257 melanoma
OVCAR-5 ovarian = system: OVCAR-5 ovarian
U251 CNS = system: U251 CNS
CAKI-1 renal = system: CAKI-1 renal
SF-268 CNS = system: SF-268 CNS
A549 NSCLC = system: A549 NSCLC
HCT-116 colon = system: HCT-116 colon
K-562 leukemia = system: K-562 leukemia
SNB-75 CNS = system: SNB-75 CNS
HCC-2998 colon = system: HCC-2998 colon

Structure (SMILES) | GI50 (UACC-257 melanoma) | TGI (UACC-257 melanoma) | GI50 (OVCAR-5 ovarian) | TGI (OVCAR-5 ovarian) | GI50 (U251 CNS) | TGI (U251 CNS) | GI50 (CAKI-1 renal) | TGI (CAKI-1 renal) | GI50 (SF-268 CNS) | TGI (SF-268 CNS) | GI50 (A549 NSCLC) | TGI (A549 NSCLC) | GI50 (HCT-116 colon) | TGI (HCT-116 colon) | GI50 (K-562 leukemia) | TGI (K-562 leukemia) | GI50 (SNB-75 CNS) | TGI (SNB-75 CNS) | GI50 (HCC-2998 colon) | TGI (HCC-2998 colon)
O=C(O)c1cn(C2CC2)c2cc(N3CCN(C(=O)Nc4nc(-c5ccccc5)cs4)CC3)c(F)cc2c1=O | 2.37 µM | 7.58 µM | 2.36 µM | > 100 µM | 0.474 µM | 14.1 µM | 3.59 µM | > 100 µM | 0.474 µM | > 100 µM | 2.15 µM | > 100 µM | 0.647 µM | > 100 µM | 2.05 µM | > 100 µM | 1.22 µM | 19.4 µM | 2.24 µM | > 100 µM
COc1ccc2c(c1)CC[C@@H]1[C@@H]2CC[C@]2(C)[C@@H](NC(=O)/C=C/c3ccc(O)c(O)c3)CC[C@@H]12 | 13.4 µM | 31.8 µM | 6.37 µM | 20.7 µM | 2.88 µM | 11.2 µM | 2.03 µM | 4.09 µM | 2.66 µM | 11 µM | 4.58 µM | 17.6 µM | 2.02 µM | 10.4 µM | – | – | 21.9 µM | > 100 µM | 2.05 µM | 4.19 µM
Cc1ccc(-c2c3c(nn2-c2ccc(S(N)(=O)=O)cc2)-c2ccccc2C3)cc1 | 21.9 µM | 40.3 µM | 26.1 µM | 63.7 µM | 19 µM | 34.7 µM | 17.7 µM | 32.6 µM | 20.3 µM | 44.7 µM | 23.4 µM | 70.1 µM | 11 µM | 24.2 µM | 16.2 µM | 53.9 µM | 17.5 µM | 33.8 µM | 8.54 µM | 25.8 µM
CCCCC(C)C(OC(=O)CC(CC(=O)O)C(=O)O)C(CC(C)CC(O)CCCCC(O)CC(O)C(C)N)OC(=O)CC(CC(=O)O)C(=O)O (centres undefined) | – | > 100 µM | – | > 100 µM | – | > 100 µM | – | > 100 µM | – | > 100 µM | – | > 100 µM | – | > 100 µM | – | > 100 µM | – | > 100 µM | – | > 100 µM
CCCCCCNC(=O)Oc1ccc(/C(=C(/C)Cc2ccc(OC)cc2)c2ccc(OCCCN(C)C)cc2)cc1 | 19.3 µM | 35.3 µM | 15.7 µM | 29.8 µM | 13 µM | 26.5 µM | 14.5 µM | 27.8 µM | 15 µM | 30.5 µM | 16.6 µM | 31.2 µM | 12.6 µM | 25.7 µM | 3.74 µM | 19.1 µM | 12.6 µM | 25.6 µM | 14.6 µM | 29.2 µM
Nc1c(O)cc(N=C2C(=O)C=CC=C2C(=O)O)c(O)c1C(=O)O | – | > 100 µM | – | > 100 µM | – | > 100 µM | – | > 100 µM | – | – | – | > 100 µM | – | > 100 µM | – | > 100 µM | – | > 100 µM | – | > 31.6 µM
CN(Cc1cccc(F)c1)c1ccc(CO)c(Cl)c1 | 0.304 µM | 1.33 µM | 0.41 µM | 2.61 µM | 4.57 µM | 30.6 µM | 3.05 µM | > 61.3 µM | 34.4 µM | > 100 µM | 4.91 µM | 37 µM | 0.392 µM | 13.7 µM | 8.99 µM | > 100 µM | 14.4 µM | 51.6 µM | 13.2 µM | 42.5 µM
CS(=O)(=O)NNS(=O)(=O)c1ccccc1 | – | > 100 µM | – | – | – | > 100 µM | – | > 100 µM | – | > 100 µM | – | > 100 µM | – | > 100 µM | – | > 100 µM | – | > 100 µM | – | > 100 µM
S=c1nc(COc2ccc(Cl)cc2Cl)[nH][nH]1 | – | > 100 µM | – | > 100 µM | – | > 100 µM | – | > 100 µM | – | > 100 µM | – | > 100 µM | – | > 100 µM | – | > 100 µM | – | > 100 µM | – | > 100 µM
CCN(CC)c1ccc(N=Nc2ccc([N+](=O)[O-])cc2OC(=O)/C=C/c2ccccc2)c(OC(=O)/C=C/c2ccccc2)c1 | – | 99.7 µM | – | – | – | > 100 µM | – | > 100 µM | – | > 100 µM | – | > 100 µM | – | > 100 µM | – | > 100 µM | – | > 100 µM | – | > 100 µM
O=C(CN1CCN(c2cc3c(cc2F)c(=O)c(C(=O)O)cn3C2CC2)CC1)Nc1nc(-c2ccc(Cl)cc2)cs1 | 3.94 µM | 22.2 µM | 8.66 µM | > 100 µM | 3.74 µM | > 100 µM | 3.57 µM | > 100 µM | 4.19 µM | > 100 µM | 3.75 µM | > 100 µM | 3.37 µM | > 100 µM | 2.95 µM | > 100 µM | 3.71 µM | > 100 µM | 5.17 µM | > 100 µM
O=[N+]([O-])c1ccc(Oc2nc(Nc3ccc(O[C@H]4CO[C@H]5[C@@H]4OC[C@@H]5O)c(Cl)c3)ncc2F)c(Cl)c1 | 1.78 µM | 4.27 µM | 2.33 µM | 16.8 µM | 1.66 µM | 6.51 µM | 2.28 µM | 8.11 µM | 1.56 µM | 6.92 µM | 1.86 µM | 6.15 µM | – | – | 1.31 µM | 13.3 µM | 0.443 µM | 3.28 µM | 2.12 µM | 7.07 µM
CCOc1ccc2c(c1)[n+]([O-])c(-c1ccc(Br)cc1)c(N)[n+]2[O-] | – | > 100 µM | – | > 100 µM | – | > 100 µM | – | 64.1 µM | – | > 100 µM | – | > 100 µM | – | – | – | > 100 µM | – | > 100 µM | – | > 100 µM
O=C1NC(=O)C(=Nc2cccc3c(=O)[nH][nH]c(=O)c23)C(c2nc3ccccc3s2)C1=O (centres undefined) | – | > 100 µM | – | – | – | > 100 µM | – | > 100 µM | – | > 100 µM | – | > 100 µM | – | > 100 µM | – | – | – | > 100 µM | – | > 100 µM
CC1(C)O[C@@H](CCl)C[C@H](C#N)O1 | – | > 100 µM | – | > 100 µM | – | > 100 µM | – | > 100 µM | – | > 100 µM | – | > 100 µM | – | > 100 µM | – | > 100 µM | – | > 100 µM | – | > 100 µM
O=[N+]([O-])c1ccc(C2CC(c3ccccc3Cl)=Nc3ccccc3S2=O)cc1 (centres undefined) | – | 48.3 µM | – | 18.6 µM | – | – | – | 4.33 µM | – | 30.5 µM | – | 38 µM | – | 3.49 µM | – | 4.57 µM | – | 21.4 µM | – | 6.85 µM
